Laboratory results published in PMC3356383, “Efficacious Intermittent Dosing of a Novel JAK2 Inhibitor in Mouse Models of Polycythemia Vera” (PLoS ONE, 2012).
Marks after values point to notes of the source that are not given here.

Assays:
[1] = system: 220 recombinant kinases; assay: Kinase profiling (Millipore), whole panel; format: biochemical; settings: 198 of 220 tested kinases; based on JAK2 (JH1-JH2) IC50
Method: Kinase profiling was conducted by Millipore (Billerica, MA).

[2] = system: pSTAT5 in BaF3 (JAK2 V617F) cells; assay: Cell pSTAT5 AlphaScreen SureFire assay; format: cell-based; settings: Mus musculus, 1 hour
Method: (§1) Measurement of pSTAT5 in cells was performed essentially as described previously using an AlphaScreen™ SureFire™ (Perkin Elmer) assay. BaF3 (JAK2 WT), BaF3 (JAK2 V617F), and CTLL-2 cells were exposed to compound for 60 min prior to lysis and subsequent detection of pSTAT5 via AlphaScreen technology. Prior to compound treatment, BaF3 (JAK2 WT) and CTLL-2 cells were cytokine starved overnight, with EPO or IL-2 added 15 minutes prior to lysis, respectively.

[3] = system: pSTAT5 in BaF3 (JAK2 WT) cells; assay: Cell pSTAT5 AlphaScreen SureFire assay; format: cell-based; settings: Mus musculus, 1 hour, EPO-stimulated
Method: as §1

[4] = system: pSTAT5 in CTLL-2 cells (JAK1 and JAK3 dependent); assay: Cell pSTAT5 AlphaScreen SureFire assay; format: cell-based
Method: as §1

[5] = system: BaF3 (JAK2 V617F) cells; assay: Cell apoptosis, ApoDirect assay; format: cell-based; settings: Mus musculus, 24 hour, ApoDirect measurement of fragmented DNA, read-out: Cell apoptosis, BaF3 (JAK2 V617F) (values shown are EC50)
Method: (§2) Cell survival was measured by ApoDirect (BD Biosciences) assay as follows. BaF3 cells were grown at 37°C, 5% CO2, and aliquots (2 × 10^6) were treated with inhibitor (various concentration dissolved in DMSO) for 24 hours and then fixed and stained as per manufacturer protocol.

[6] = system: BaF3 (JAK2 WT) cells; assay: Cell apoptosis, ApoDirect assay; format: cell-based; settings: Mus musculus, 24 hour, EPO-stimulated, ApoDirect measurement of fragmented DNA, read-out: Cell apoptosis, BaF3 (JAK2 WT) (values shown are EC50)
Method: as §2

[7] = system: spleen cell populations; assay: Cell populations in spleen of normal mice; format: in vivo; settings: 54 mpk; for Spleen B-Cells B220+ / Spleen Cell Count / Spleen Myeloid Gr-1+ CD11b+ / Spleen NK-Cells NK1.1+ NKG2D+ / Spleen T-Cells CD4+ / Spleen T-Cells CD8+ / Spleen T-Cells Tregs CD25+CD127^lo / Spleen Weight / Spleen B-Cells MZ-B-cells CD21^hiCD23^lo: normal mice
Method: Cells were stained in PBS, 0.5% BSA with antibodies for 15 min on ice. Stained cells were acquired on a 4-laser LSR-II (BD Biosciences) and data analyzed using FlowJo software (Treestar). Dead cells were labeled with the blue fluorescent LIVE/DEAD reactive dye (Invitrogen) and excluded from the analysis.
Monoclonal antibodies (anti-mouse): CD3, CD4, CD5, CD8, CD11b, CD19, CD21/35, CD23, CD25, CD43, CD44, CD49b, CD69, CD71, CD93, CD117, B220, GR-1, IgD, NK1.1, NKG2A/C/E, NKG2D, Ter119 were purchased from BD Biosciences; CD4, CD8, CD49b, CD62L, TCRβ, TCRγδ from eBioscience; GR-1 from Invitrogen; CD43 from Miltenyi Biotec. Goat anti-mouse IgM-FITC, (μ chain specific) from Jackson Immuno Research.
JAK2 and its family members JAK1 and JAK3 are known to signal downstream of cytokines that play essential roles in the development of lymphoid cell populations. To examine more thoroughly the effects of JAK2 inhibition on lymphoid cells, we analyzed wild-type (C57BL/6) mice treated with 54 mpk MRLB-11055 for 3 days, 6 days or up to 5 cycles of 3 days (“on”) followed by a 4 day holiday (“off”).
Supplementary file pone.0037207.s004.doc: Table S2 Effect of MRLB-11055 on Cell Populations in Spleen of Normal Mice. Cell counts measured by Advia. Cycles refer to 3 days of treatment followed by a 4 day holiday. *p<0.05 in Student T test when comparing vehicle 5 cycle with treatment 5 cycle and vehicle 2 cycle with treatment 2 cycle, resp. (DOC) Click here for additional data file.

[8] = system: lung epithelial cancer cell lines, including H2122 cells; assay: Cell proliferation of several lung epithelial cancer cell lines; format: cell-based; settings: on average
Method: Cell proliferation was measured by ViaLight (Lonza Group Ltd) assay as follows. Cells (1000–2000) were seeded into 384-well plates and incubated 16 hours @ 37°C, 5% CO2. […] Cells were lysed and ATP detected as per the manufacturer protocol.

[9] = 6 days of continuous treatment, wild-type C57BL/6 mice
[10] = 2 cycles (3 days treatment, 4 day holiday)
[11] = 5 cycles (3 days treatment, 4 day holiday)

## NC(=O)c1cnc(N[C@H](C2CC2)C(F)(F)F)c2c1[nH]c1cc(-c3cnc(N)nc3)ccc12 [MRLB-11055]
[1]
  Fold selectivity over JAK2 for 198/220 kinases: >25-fold over JAK2
[2]
  IC50: 11 nM
[3]
  IC50: 23 nM
[4]
  Times less potent on IL-2 stimulated CTLL-2 pSTAT5 than on JAK2V617F-mediated pSTAT5 in BaF3 cells: 6 times
[4]; Mus musculus, CTLL-2, 1 hour, IL2-stimulated, JAK1 and JAK3 dependent
  IC50: 66 nM
[5]
  EC50: 135 nM
[6]
  EC50: 260 nM
[7]; [9]
  Decrease of splenic B220+ B-cells: 2 fold
  Decrease of splenic NK1.1+ cells: 25 fold
[7]; intermittent dosing, 5 cycles of 3 days on and 4 days off
  Reduction of any of the splenic lymphocytes tested: ≤ 2 fold
[7]; [10]
  Spleen B-Cells B220+: 30.9 ± 2.2 X10^6
  Spleen Cell Count: 53.2 ± 1.2 X10^6
  Spleen Myeloid Gr-1+ CD11b+: 0.67 ± 0.17 X10^6
  Spleen NK-Cells NK1.1+ NKG2D+: 1.2 ± 0.2* X10^6
  Spleen T-Cells CD4+: 6.5 ± 1.0* X10^6
  Spleen T-Cells CD8+: 4.0 ± 0.4* X10^6
  Spleen T-Cells Tregs CD25+CD127^lo: 0.4 ± 0.1 * X10^6
  Spleen Weight: 76.3 ± 4.7 mg
[7]; [11]
  Spleen B-Cells B220+: 31.2 ± 6.9 X10^6
  Spleen B-Cells MZ-B-cells CD21^hiCD23^lo: 1.7 ± 0.4* X10^6
  Spleen Cell Count: 59.4 ± 20.3 X10^6
  Spleen Myeloid Gr-1+ CD11b+: 1.05 ± 0.76 X10^6
  Spleen NK-Cells NK1.1+ NKG2D+: 0.9 ± 0.3* X10^6
  Spleen T-Cells CD4+: 7.9 ± 1.9* X10^6
  Spleen T-Cells CD8+: 4.9 ± 1.1* X10^6
  Spleen T-Cells Tregs CD25+CD127^lo: 0.6 ± 0.2* X10^6
  Spleen Weight: 92.5 ± 29.8 mg
[7]; 3 days
  Spleen B-Cells B220+: 24.2 ± 6.2* X10^6
  Spleen B-Cells MZ-B-cells CD21^hiCD23^lo: 0.2 ± 0.2* X10^6
  Spleen Cell Count: 36.2 ± 8.7* X10^6
  Spleen Myeloid Gr-1+ CD11b+: 0.25 ± 0.13* X10^6
  Spleen NK-Cells NK1.1+ NKG2D+: 0.10 ± 0.03* X10^6
  Spleen T-Cells CD4+: 4.9 ± 0.8* X10^6
  Spleen T-Cells CD8+: 4.7 ± 1.1* X10^6
  Spleen T-Cells Tregs CD25+CD127^lo: 0.3 ± 0.1* X10^6
  Spleen Weight: 50.5 ± 4.4* mg
[7]; 6 days
  Spleen B-Cells B220+: 16.9 ± 8.7* X10^6
  Spleen B-Cells MZ-B-cells CD21^hiCD23^lo: 0.2 ± 0.2* X10^6
  Spleen Cell Count: 26.5 ± 3.1* X10^6
  Spleen Myeloid Gr-1+ CD11b+: 0.22 ± 0.09* X10^6
  Spleen NK-Cells NK1.1+ NKG2D+: 0.07 ± 0.04* X10^6
  Spleen T-Cells CD4+: 4.1 ± 1.7* X10^6
  Spleen T-Cells CD8+: 3.2 ± 1.5* X10^6
  Spleen T-Cells Tregs CD25+CD127^lo: 0.2 ± 0.1* X10^6
  Spleen Weight: 45.8 ± 7.6* mg
[8]
  Proliferation IC50 of lung epithelial cancer cell lines, fold higher than for JAK2-dependent cell lines: 50–70 fold
